Experimental data taken from PubChem BioAssay AID1259426 (Fisher Drug Discovery Resource Center, 2018).
The source made the active and inactive calls.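 Rule for the calls: active = EC50 under a set limit in control cells lacking the mosquito receptor, marking a fluorescence artifact; inactive = the rest.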

What follows are compounds tested against HEK293 Galpha15/GCaMP6s without NPYLR7, calcium fluorescence (assay: nonspecific activation in parental Galpha15/GCaMP6s cells – cell-based, HEK293 lacking NPYLR7, counter-screen for mosquito NPYLR7 agonist project, dose response (AID 1259426);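 note: potency for a rise in fluorescence over baseline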).

| SMILES | EC50 |
| --- | --- |
| O=C(c1cnn(-c2ccccc2)n1)N1CCCC(COCc2ccccc2)C1 (configuration not stated) | 0.513 µM |
| COc1ccc(C(=O)N(Cc2ccccc2)C2CCC(NC(=O)C3CCN(C(=O)c4ccccc4Cl)CC3)CC2)cc1 (configuration not stated) | > 20 µM (inactive) |
| COc1ccc(NC(=O)CN2C(=O)c3ccccc3NC23CCN(C)CC3)cn1 | > 20 µM (inactive) |
| CCOc1cc2c(cc1C=C(C#N)C#N)OC(C)C2 (configuration not stated) | 14.7 µM |
| CN1C(=S)N(c2ccc3c(c2)CCC3)C(=O)/C1=C\c1ccncc1 | > 20 µM (inactive) |
| CC(=O)NN1C(=O)/C(=C\c2ccc(O)cc2)SC1=S | 3.61 µM |
| Nc1nc(Cl)nc2c1ncn2[C@@H]1O[C@H](CO)[C@@H](O)[C@H]1O | 1.15 µM |
| CC(=O)[C@]1(O)Cc2c(O)c3c(c(O)c2[C@@H](O[C@H]2C[C@H](N)[C@H](O)[C@H](C)O2)C1)C(=O)c1ccccc1C3=O | 4.29 µM |
| Nc1nc(Cl)nc2c1ncn2[C@@H]1O[C@H](CO)[C@H](O)C1O (some centres not stated) | 1.42 µM |
| CC1CN(c2ccc(/C=C(\C#N)c3nc4ccccc4[nH]3)o2)CC(C)O1 (configuration not stated) | > 20 µM (inactive) |
| Oc1ccc(-c2onc3ccc(Cl)cc23)cc1 | > 20 µM (inactive) |
| CCN1CCc2c(sc(NC(=O)C3=COCCO3)c2-c2nc3ccccc3s2)C1 | 0.945 µM |
| Cc1ccc(Cl)c(Oc2cc(N3CCN(C(=O)c4ccc(Cl)c(Cl)c4)CC3)ncn2)c1 | > 20 µM (inactive) |
| O=C1Nc2ccccc2C1C=NN1CCOCC1 (configuration not stated) | > 20 µM (inactive) |
| CS(=O)(=O)c1ccc(-c2cccc3c2OC(CNC(=O)c2cc[n+]([O-])cc2)C3)cc1 (configuration not stated) | > 20 µM (inactive) |
| O=C1CSC(=S)N1N=Cc1cc(Br)c(O)c(Br)c1 | 2.31 µM |
| C[n+]1c2cc(N)ccc2cc2ccc(N)cc21 | < 0.039 µM |
| N#CC1C(=N)Oc2cc(O)ccc2C1c1ccncc1 (configuration not stated) | 7.22 µM |
| CCN1CCc2c(sc(NC(=O)c3ccccc3)c2-c2nc3ccccc3s2)C1 | > 20 µM (inactive) |
| O=C1/C(=C/c2cccc(Br)c2)Oc2c1ccc(O)c2CN1CCN(CCO)CC1 | 12.7 µM |
| COc1ccc(-n2ccnc2-c2ccc(C#CC(C)(C)O)cc2)cn1 | > 20 µM (inactive) |
| c1ccc(CNc2nc(NCCc3ccncc3)c3sccc3n2)cc1 | 15.8 µM |
| CCN1C(=Cc2ccc3cc(C)ccc3[n+]2CC)Sc2ccccc21 | 0.911 µM |
| O=c1oc2c(CN3CCN(CCO)CC3)c(O)ccc2cc1-c1nc2ccccc2s1 | < 0.039 µM |

Second part, the compound after the results:

| EC50 | SMILES |
| --- | --- |
| > 20 µM (inactive) | C[C@@H](NC(=O)CN1Cc2ccc(N3CCOCC3)nc2C1=O)c1ccccc1 |
| > 20 µM (inactive) | FC(F)(F)c1ccc(-c2nc3ccc(Cl)cn3c2NCc2ccccc2)cc1 |
| > 20 µM (inactive) | CNC(=O)c1cnc(/C=C/c2csc(-c3ccsc3)n2)[nH]c1=O |
| 9.41 µM | CN1C=CC(=C/C=C2/C=Nc3ccccc32)C=C1 |
| > 20 µM (inactive) | O=C(CNCc1ccccc1)N1CC(=O)N(c2cccc(Cl)c2)C1 |
| < 0.039 µM | Cc1cc2nc3c(=O)[nH]c(=O)nc-3n(CC(O)C(O)C(O)CO)c2cc1C (configuration not stated) |
| > 20 µM (inactive) | O=C(CSc1cn(CC(=O)N2CCCCCC2)c2ccccc12)NC1CCCC1 |
| < 0.039 µM | N#CC(C#N)=C1C=C2C=C(N3CCCCC3)CCC2CC1 (configuration not stated) |
| 0.294 µM | O=C(O)CSc1ccc2c3c(cccc13)C(=O)c1ccccc1-2 |
| > 20 µM (inactive) | O=C(Nc1cccc(-c2nnco2)c1)C1CCCCC1 |
| > 20 µM (inactive) | CS(=O)(=O)Nc1nc2n(n1)C(c1ccccc1)CC(c1ccc(Cl)cc1)=N2 (configuration not stated) |
| 13.9 µM | O=C1/C(=C/c2cccc(F)c2)Oc2c1ccc(O)c2CN1CCN(CCO)CC1 |
| 18.3 µM | O=c1nc2n3ccc(-c4ccncc4)cc3ncc-2s1 |
| 9.1 µM | CCN(CC)Cc1c(O)cc(C)c2c1O/C(=C\c1cc3ccccc3o1)C2=O |
| > 20 µM (inactive) | C=CCN1C(=O)C(Cc2ccc(OC)cc2)S/C1=N/N=C\c1cccs1 (configuration not stated) |
| > 20 µM (inactive) | CC(C)Nc1ccc(NS(=O)(=O)NCc2ccccc2)cn1 |
| 14.5 µM | C(/C=C/CC=Nc1ccccc1)=Nc1ccccc1 |
| > 20 µM (inactive) | O[C@@H]1CN(Cc2ccncc2Cl)CC[C@H]1c1ccc2c(c1)OCO2 |
